Results: patent US20230391765A1, “HETEROBIFUNCTIONAL COMPOUNDS AS DEGRADERS OF ENL” (ICAHN SCHOOL OF MEDICINE AT MOUNT SINAI, priority 2020, published 2023)

What was measured:
ENL target genes = test: RT-qPCR of ENL target genes in MV4; 11 cells; assay type: cell-based; conditions: 11 cells, 1, 2 and 4 μM for 6, 12, 18 and 24 h
Method: MV4; 11 cells were treated with DMSO, or LQ076-122 at 1, 2, and 4 μM for 6, 12, 18 and 24 h. RT-qPCR analysis was performed to detect the mRNA levels of selected ENL target genes.
Total RNA was extracted using the RNeasy Plus kit (Qiagen) and reverse-transcribed using the iScript cDNA Synthesis kit (Bio-Rad). RT-qPCR was performed using the Power SYBR Green PCR Master Mix (Applied Biosystems) on the CFX96 Real-Time PCR system (Bio-Rad). Gene expressions were calculated following normalization to 18s rRNA amounts using the comparative cycle threshold (Ct) method.

MV4; 11-Luc cells = test: MV4; 11 disseminated xenograft model, bioluminescence imaging; assay type: in vivo; conditions: NSG mice with MV4, 100 mg/kg twice daily IP, three cycles (4 treatment days, 2 resting days)
Method: Immuno-deficient NSG mice were irradiated and transplanted with 5×10^5 MV4; 11-Luc cells through tail-vein injections. Ten days after transplantation, mice (n=5) were treated with 100 mg/kg LQ076-122 or vehicle twice daily through IP injection in cycles. Each cycle contains 4 treatment days followed by 2 resting days. Day 0 is the time that the treatment started. Leukemia progression was monitored by bioluminescence imaging at different time points upon LQ076-122 or vehicle treatment (FIG. 18A). The mean radiances of bioluminescence signal were quantified in FIG. 18B.
Immunodeficient NOD.Cg-Prkdc^scidIl2rg^tm1wil/SzJ (NSG) mice at 6-8 weeks of age were produced at the Van Andel Institute Vivarium and Transgenic Core using breeders purchased from the Jackson laboratory. Mice were pretreated with acidified water and antibiotics for a week before a sublethal dose of total body irradiated (2 Gy). Then mice were transplanted with 0.5×10^6 MV4; 11-Luc cells through tail-vein injection. ENL degrader treatment was started ten days after transplantation with the successful engraftment confirmed by bioluminescence imaging. Mice were randomly assigned to two groups (n=5) and treated with IP injections of either ENL degrader LQ076-122 (100 mg/kg, twice daily) or vehicle. […] Leukemia progression in each animal was monitored by bioluminescence imaging after each treatment cycle. […]

MOLM13 cells = test: Apoptosis assay (FITC Annexin V), MOLM13 cells; assay type: cell-based; conditions: MOLM13 cells, 1, 2 and 4 μM for 24 h
Method: (§1) Apoptotic cells were measured by the FITC Annexin V Apoptosis Detection Kit (BD Biosciences).
(§2) MV4; 11 or MOLM13 cells were seeded at 0.2×10^6 cells/mL density. Cells were treated with DMSO or ENL degraders at indicated concentrations. Each treatment was done in triplicates. After 24 h treatment, cells were collected and washed with ice-cold PBS once and resuspended in 250 μL of 1× binding buffer containing 5 μL of FITC-Annexin V and PI (BD Biosciences). After 15 min incubation at room temperature in the dark, 250 μL of 1× binding buffer was added and flow cytometry analysis was performed.

[1] = test system: ENL-dependent MOLM13 leukemia cells; test: Cell viability (CellTiter-Glo), MOLM13 cells; assay type: cell-based; conditions: MOLM13 cells, 0.5, 1, 2 and 4 μM for 72 h
Method: MV4; 11 (FIG. 13A), MOLM13 (FIG. 13B) and Jurkat (FIG. 13C) cells were seeded at 2×10^5 cells/mL density and treated with DMSO or indicated compounds 0.5, 1, 2 and 4 μM for 72 h. Cell viability was measured using CellTiter-Glo reagent (Promega) and relative cell viability was calculated by normalization to DMSO samples.
MV4; 11 or MOLM13 cells were seeded at 0.2×10^6 cells/mL density. Cells were treated with DMSO or ENL degraders at indicated concentrations. Each treatment was done in triplicates. After 72 h treatment, 100 μL of cell suspension from each treatment was mixed with 25 μL of CellTiter-Glo reagent (Promega) and incubated for 10 min before the luminescence signals were detected on a plate reader.

GAS41 = molecular target: T1, GAS41 (Homo sapiens, UniProt O95619); test: Western blot of GAS41 protein level in MV4; 11 cells; assay type: cell-based; conditions: 11 cells, 0.3, 1, 3, 10 and 30 μM for 24 h
T1 construct: host or cells: MV4;11
Method: MV4; 11 cells were treated with LQ076-122, or LQ081-107 at 0.3, 1, 3, 10, and 30 μM for 24 h. DMSO treated cells were used as control. Cells were lysed and expression of ENL and GAS41 was assessed by Western analysis.
After ENL degrader treatment, cells were collected, lysed, and total cell lysates were used for Western blot. The following primary antibodies were used: ENL (Cell Signaling Technology), GAS41 (Santa Cruz), GAPDH (Santa Cruz), β-actin (Sigma). Blots were detected using HRP-conjugated secondary antibodies.

[2] = test system: ENL-dependent MV4; 11 cells; test: Cell viability (CellTiter-Glo), MV4; 11 cells; assay type: cell-based; conditions: 11 cells, 0.5, 1, 2 and 4 μM for 72 h
Outline: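 MV4;11 cells (ENL-dependent) were seeded at 2×10^5 cells/mL and exposed to compound or DMSO, mostly for 72 h, with some runs at 3 or 6 days. Concentrations ranged from 10 nM to 10 μM depending on the run. Viability was read by CellTiter-Glo luminescence and normalized to DMSO.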

MV4; 11 cells = test: Apoptosis assay (FITC Annexin V), MV4; 11 cells; assay type: cell-based; conditions: 11 cells, 1, 2 and 4 μM for 24 h
Method: as §1, §2

T1 sequence (O95619 whole entry): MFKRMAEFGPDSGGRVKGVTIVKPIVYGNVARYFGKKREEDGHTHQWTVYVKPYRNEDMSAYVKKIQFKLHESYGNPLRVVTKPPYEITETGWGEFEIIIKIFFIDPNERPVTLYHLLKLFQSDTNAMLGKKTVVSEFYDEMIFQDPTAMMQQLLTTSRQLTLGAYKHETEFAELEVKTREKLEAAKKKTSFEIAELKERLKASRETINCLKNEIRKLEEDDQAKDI

Cc1ncsc1-c1ccc(CNC(=O)[C@@H]2C[C@@H](O)CN2C(=O)[C@@H](NC(=O)CCCCCCCCCCNC(=O)c2ccc(C(=O)Nc3ccc4[nH]c(CN5CCC[C@@H]5C)nc4c3)cc2)C(C)(C)C)cc1 [LQ076-122, N^1-(11-(((S)-1-((2S,4R)-4-hydroxy-2-((4-(4-methylthiazol-5-yl)benzyl)carbamoyl)pyrrolidin-1-yl)-3,3-dimethyl-1-oxobutan-2-yl)amino)-11-oxoundecyl)-N^4-(2-(((S)-2-methylpyrrolidin-1-yl)methyl)-1H-benzo[d]imidazol-5-yl)terephthalamide]
ENL target gene expression (mRNA levels) (ENL target genes): reduced ENL target gene expression in a concentration- and time-dependent manner
leukemia progression (MV4; 11-Luc cells): significantly inhibited leukemia progression
induction of apoptosis (MOLM13 cells): induced apoptosis
suppression of cell growth (relative cell viability) [1]: selectively suppressed cell growth
reduction of GAS41 protein level (GAS41): but not the level of another YEATS domain-containing protein GAS41
suppression of cell growth (relative cell viability) [2]: selectively suppressed cell growth
induction of apoptosis (MV4; 11 cells): induced apoptosis
